Consider 21 molecules from publication PMC11458808, “Identification and development of a series of disubstituted piperazines for the treatment of Chagas disease” (European Journal of Medicinal Chemistry, 2022).

Data set [1] relates to intracellular T. cruzi X10/7 A1 amastigotes. In words: Intracellular T. cruzi assay. In kind it is cell-based, Trypanosoma cruzi. As to conditions: for EC50: Trypanosoma cruzi, read-out: T. cruzi (pEC50) (converted); for Activity in the intracellular T. cruzi assay (in words): purified compound. As to the method:
1.1 Intracellular T. cruzi assay: Potency against intracellular T. cruzi X10/7 A1 amastigotes was determined as described previously with as sole modification that the compound treatment duration was increased from 72h to 96h.

The nature of data set [2]: Intrinsic clearance in mouse liver microsomes. As to conditions: for Mouse CLi: mouse liver microsomal intrinsic clearance. In kind it is in vitro ADME. As to the method: 2.2 Intrinsic clearance: This assay was conducted as previously described in [5].
The nature of data set [3]: Aqueous (kinetic) solubility by CAD. In kind it is physicochemical. As to conditions: kinetic solubility measured by CAD. As to the method: 2.1 Aqueous solubility: This assay was conducted as previously described in [4].
A short description of data set [4]: ChromLogD pH7.4 (chromatographic hydrophobicity index). In kind it is physicochemical. As to conditions: pH 7.4, CHIpH7.4 × 0.0857–2; for chromatographic logD: read-out: ChromlogDpH7.4.
[5] abbreviates: potency against intracellular T. cruzi amastigotes, at least three independent replicates, standard deviations ≤0.2.

In brackets after ≈: the same amount, converted by molar mass. Where two headings read alike, the source gives them in different places.

On to `COc1ccc(S(=O)(=O)Nc2ccc(Cn3cc4c(n3)CN(C(=O)c3cccc(Cl)c3)C4)cc2)cc1` [Compound 29], for which the “T. cruzi (pEC50)” value in data set [1] (setting [5]) is given as 4.9. The “Mouse CLi” value in data set [2] was found to be 12 mL/min/g. Moreover, the “Clearance (mouse liver microsomal)” value in data set [2] (mouse, microsomes) worked out at 12 mL/min/g. The solubility in data set [3] was determined as 19 µM (≈ 9.94 µg/mL). The ChromlogDpH7.4 in data set [4] came out at 5.0.

On to `COc1ccc(S(=O)(=O)Nc2ccc(CN3CCN(C(=O)c4cccc(Cl)c4)CC3)cc2)cc1` [Compound 4, N-(4-((4-(3-chlorobenzoyl)piperazin-1-yl)methyl)phenyl)-4-methoxybenzenesulfonamide], for which the EC50 in data set [1] (setting [5]) was 0.501 µM. In data set [2], the “Clearance (mouse liver microsomal)” value was more than 50 mL/min/g and the “Mouse CLi” value is more than 50 mL/min/g. The molecule also showed a solubility in data set [3] of 43 µM (≈ 21.5 µg/mL). The chromatographic logD in data set [4] turned out to be 5.6.

For the molecule `Cc1ccc(S(=O)(=O)Nc2ccc(CN(C)[C@H]3CCN(C(=O)c4cccc(Cl)c4)C3)cc2)cc1` [Compound 33, (S)-N-(4-(((1-(3-chlorobenzoyl)pyrrolidin-3-yl)(methyl)amino)methyl)phenyl)-4-methylbenzenesulfonamide], the EC50 in data set [1] (setting [5]) is 6.31 µM. Further, the “Mouse CLi” value in data set [2] is more than 50 mL/min/g. For the same molecule, the concentration in solution in data set [3] (solubility) was 27 µM (≈ 13.4 µg/mL). Moreover, the chromatographic logD in data set [4] was 5.7.

For `COc1ccc(S(=O)(=O)Nc2ccc(CN3C[C@@H]4C[C@H]3CN4C(=O)c3cccc(Cl)c3)cc2)cc1` [Compound 39, N-(4-(((1S,4S)-5-(3-chlorobenzoyl)-2,5-diazabicyclo[2.2.1]heptan-2-yl)methyl)phenyl)-4-methoxybenzenesulfonamide], in data set [1] (setting [5]), the EC50 is 15.8 µM. Further, the “Mouse CLi” value in data set [2] is listed as more than 50 mL/min/g. In data set [3], this molecule yielded a solubility of 47 µM (≈ 24.1 µg/mL). Moreover, the chromatographic logD in data set [4] was 5.1.

On to `O=C(c1cccc(Cl)c1)N1CCN(Cc2ccc(N3CCCCS3(=O)=O)cc2)CC1` [Compound 8, (3-chlorophenyl)(4-(4-(1,1-dioxido-1,2-thiazinan-2-yl)benzyl)piperazin-1-yl)methanone], for which the EC50 in data set [1] (setting [5]) is 25.1 µM. Besides, the “Mouse CLi” value in data set [2] was found to be 21 mL/min/g. In data set [3], this molecule returned a solubility not below 402 µM. Also, in data set [4], the chromatographic logD is 5.1.

Regarding `COc1ccc(S(=O)(=O)Nc2cnc(CN3CCN(C(=O)c4cccc(Cl)c4)CC3)nc2)cc1` [Compound 43, N-(2-((4-(3-chlorobenzoyl)piperazin-1-yl)methyl)pyrimidin-5-yl)-4-methoxybenzenesulfonamide], in data set [1] (setting [5]), the EC50 was more than 50.1 µM. In addition, in data set [1], the “Activity in the intracellular T. cruzi assay (in words)” value (shortened to “Activity”) is reported as “lacked any activity”. Besides, the “Mouse CLi” value in data set [2] was found to be 1.5 mL/min/g. In data set [3], this molecule yielded a solubility not below 474 µM. Moreover, the chromatographic logD in data set [4] is 2.9.

For `COc1ccc(S(=O)(=O)Nc2ccc(CN3CCN(C(=O)c4cccc(Cl)c4)CC3)nc2)cc1` [Compound 44, N-(6-((4-(3-chlorobenzoyl)piperazin-1-yl)methyl)pyridin-3-yl)-4-methoxybenzenesulfonamide], the EC50 in data set [1] (setting [5]) is 7.94 µM. In data set [2], the “Mouse CLi” value is 39 mL/min/g. In data set [3], the solubility was not below 373 µM. For the same molecule, the chromatographic logD in data set [4] came out at 4.5.

For the molecule `COc1ccc(S(=O)(=O)Nc2ccc(CN3CCN(C(=O)C4CCCN(C)C4)CC3)cc2)cc1` (stereo not drawn) [Compound 20, 4-methoxy-N-(4-((4-(1-methylpiperidine-3-carbonyl)piperazin-1-yl)methyl)phenyl)benzenesulfonamide], in data set [1] (setting [5]), the EC50 is more than 50.1 µM. In addition, the “Mouse CLi” value in data set [2] stood at 1.5 mL/min/g. In data set [3], this molecule yielded a solubility not below 526 µM. For the same molecule, in data set [4], the chromatographic logD is 2.3.

Regarding `COc1ccc(S(=O)(=O)Nc2nnc(CN3CCN(C(=O)c4cccc(Cl)c4)CC3)o2)cc1` [Compound 41, N-[5-[[4-(3-chlorobenzoyl)piperazin-1-yl]methyl]-1,3,4-oxadiazol-2-yl]-4-methoxy-benzenesulfonamide], the EC50 in data set [1] (setting [5]) is more than 50.1 µM. In addition, the “Activity” value in data set [1] is “inactive”. In data set [2], the “Mouse CLi” value was 0.6 mL/min/g. The solubility in data set [3] is not below 404 µM. The chromatographic logD in data set [4] turned out to be 1.9.

As for `Cc1ccc(S(=O)(=O)Nc2ccc(CN3CCN(C(=O)c4cc5ccccc5[nH]4)CC3)cc2)cc1` [Compound 23, N-(4-((4-(1H-indole-2-carbonyl)piperazin-1-yl)methyl)phenyl)-4-methylbenzenesulfonamide], the EC50 in data set [1] (setting [5]) is 0.2 µM. For the same molecule, the “Mouse CLi” value in data set [2] is on record as 40 mL/min/g. This molecule also registered a solubility in data set [3] of less than 1 µM. Also, in data set [4], the chromatographic logD stood at 5.6.

As for `COc1ccc(S(=O)(=O)Nc2ccc(CN3CCN(C(=O)c4cc(C(F)(F)F)n[nH]4)CC3)cc2)cc1` [Compound 17, 4-methoxy-N-(4-((4-(5-(trifluoromethyl)-1H-pyrazole-3-carbonyl)piperazin-1-yl)methyl)phenyl)benzenesulfonamide], in data set [1] (setting [5]), the EC50 was 6.31 µM. Moreover, in data set [2], the “Mouse CLi” value stood at 6.4 mL/min/g. In addition, the concentration in solution in data set [3] (solubility) was 122 µM (≈ 63.9 µg/mL). In addition, the chromatographic logD in data set [4] came to 4.9.

For the molecule `COc1ccc(S(=O)(=O)Nc2ncc(CN3CCN(C(=O)c4cccc(Cl)c4)CC3)nc2OC)cc1` [Compound 46, N-(5-((4-(3-chlorobenzoyl)piperazin-1-yl)methyl)-3-methoxypyrazin-2-yl)-4-methoxybenzenesulfonamide], the EC50 in data set [1] (setting [5]) is more than 50.1 µM. Moreover, in data set [1], the “Activity” value was “lacked any activity”. For the same molecule, in data set [2], the “Mouse CLi” value turned out to be 1.2 mL/min/g. In data set [3], the solubility was not below 443 µM. For the same molecule, the chromatographic logD in data set [4] was 4.

Turning to `Cc1ccc(S(=O)(=O)Nc2ccc(CN(C)C3CCN(C(=O)c4cccc(Cl)c4)C3)cc2)cc1` (stereo in doubt) [Compound 34, (S)-N-(4-(((1-(3-chlorobenzoyl)pyrrolidin-3-yl)(methyl)amino)methyl)phenyl)-4-methylbenzenesulfonamide], in data set [1] (setting [5]), the EC50 was 10 µM. In addition, the “Mouse CLi” value in data set [2] is given as more than 50 mL/min/g. Moreover, the concentration in solution in data set [3] (solubility) came to 28 µM (≈ 13.9 µg/mL). Moreover, in data set [4], the chromatographic logD amounted to 5.7.

For `Cc1ccc(S(=O)(=O)Nc2ccc(CN[C@H]3CCN(C(=O)c4cccc(Cl)c4)C3)cc2)cc1` [Compound 31, (S)-N-(4-(((1-(3-chlorobenzoyl)pyrrolidin-3-yl)amino)methyl)phenyl)-4-methylbenzenesulfonamide], the EC50 in data set [1] (setting [5]) is 10 µM. Moreover, the “Mouse CLi” value in data set [2] was more than 50 mL/min/g. Further, in data set [3], the solubility worked out at 72 µM (≈ 34.8 µg/mL). In addition, in data set [4], the chromatographic logD was found to be 4.9.

As to `COc1ccc(S(=O)(=O)Nc2ccc(CN3CCN(C(=O)c4ccccc4)CC3)cc2)cc1` [Compound 10, N-(4-((4-benzoylpiperazin-1-yl)methyl)phenyl)-4-methoxybenzenesulfonamide], the EC50 in data set [1] (setting [5]) was 3.16 µM. The “Mouse CLi” value in data set [2] is listed as more than 50 mL/min/g. In addition, in data set [3], the concentration in solution (solubility) was 116 µM (≈ 54 µg/mL). For the same molecule, the chromatographic logD in data set [4] came out at 4.6.

Consider `COc1ccc(S(=O)(=O)Nc2ccc(CN3CCN(C(=O)c4ccc(C)c(Cl)c4)CC3)cc2)cc1` [Compound 15, N-(4-((4-(3-chloro-4-methylbenzoyl)piperazin-1-yl)methyl)phenyl)-4-methoxybenzenesulfonamide], for which the EC50 in data set [1] (setting [5]) was 1.26 µM. The “Mouse CLi” value in data set [2] is more than 50 mL/min/g. In data set [3], the solubility was determined as 13 µM (≈ 6.68 µg/mL). Also, the chromatographic logD in data set [4] is 5.8.

With `O=C(c1cccc(Cl)c1)N1CCN(Cc2ccc(NS(=O)(=O)CC3CCCO3)cc2)CC1` (stereo not drawn) [Compound 7, N-(4-((4-(3-chlorobenzoyl)piperazin-1-yl)methyl)phenyl)-1-(tetrahydrofuran-2-yl)methanesulfonamide], in data set [1] (setting [5]), the EC50 was 15.8 µM. Besides, the “Mouse CLi” value in data set [2] was 44 mL/min/g. This molecule also showed a solubility in data set [3] of 486 µM (≈ 232 µg/mL). Moreover, in data set [4], the chromatographic logD was found to be 4.6.

On to `COc1ccc(S(=O)(=O)Nc2ccc(CCN3CCN(C(=O)c4cccc(Cl)c4)CC3)cc2)cc1` [Compound 40, N-(4-(2-(4-(3-chlorobenzoyl)piperazin-1-yl)ethyl)phenyl)-4-methoxybenzenesulfonamide], for which the EC50 in data set [1] (setting [5]) is 5.01 µM. Besides, the “Mouse CLi” value in data set [2] is on record as more than 50 mL/min/g. Further, the solubility in data set [3] came to 35 µM (≈ 18 µg/mL). Also, the chromatographic logD in data set [4] worked out at 5.5.

For `CS(=O)(=O)Nc1ccc(CN2CCN(C(=O)c3cccc(Cl)c3)CC2)cc1` [Compound 2, N-(4-((4-(3-chlorobenzoyl)piperazin-1-yl)methyl)phenyl)methanesulfonamide], in data set [1] (setting [5]), the EC50 was more than 50.1 µM. Besides, the “Activity” value in data set [1] is “complete loss of potency”. The “Mouse CLi” value in data set [2] was 2.6 mL/min/g. In data set [3], this molecule had a solubility not below 470 µM. The chromatographic logD in data set [4] turned out to be 4.

As for `COc1ccc(S(=O)(=O)Nc2ccc(CN3CCN(C(=O)c4cccc(F)c4)CC3)cc2)cc1` [Compound 11, N-(4-((4-(3-fluorobenzoyl)piperazin-1-yl)methyl)phenyl)-4-methoxybenzenesulfonamide], in data set [1] (setting [5]), the EC50 is 0.631 µM. The “Mouse CLi” value in data set [2] is more than 50 mL/min/g. In data set [3], the concentration in solution (solubility) was 76 µM (≈ 36.8 µg/mL). Moreover, the chromatographic logD in data set [4] worked out at 4.8.

As for `O=C(c1cccc(Cl)c1)N1CCN(Cc2ccc(NS(=O)(=O)c3ccccc3)cc2)CC1` [Compound 3, N-(4-((4-(3-chlorobenzoyl)piperazin-1-yl)methyl)phenyl)benzenesulfonamide], the EC50 in data set [1] (setting [5]) is 1.58 µM. The “Mouse CLi” value in data set [2] is given as more than 50 mL/min/g. The same molecule returned a solubility in data set [3] of 67 µM (≈ 31.5 µg/mL). In addition, the chromatographic logD in data set [4] was 5.5.
